Experimental data reported in US12359121B2, “Neutral fluorescent mitochondrial marker as amide derivative, and preparation method and use thereof” (SOOCHOW UNIVERSITY, priority 2021, dated 2025).

How the values were obtained:
[1] = tested on: mitochondria in HeLa cells; assay: Colocalization imaging with green mitochondrial marker Mito Tracker Green FM, laser confocal microscope; type: cell-based; settings: 2 μM; for mitochondria labeling ability: red channel; for colocalization coefficient: versus Mito Tracker Green FM (100 nm)
Protocol: Dye 3a was formulated into a mother liquor in DMSO (dimethyl sulfoxide), and then added to a conventional cell culture medium to give a concentration of dye 3a in the cell culture medium of 2 μM. HeLa cells were co-cultured for 10 min in an incubator at saturated humidity, 37° C., and 5% CO2 (the experiment was same below). The green mitochondrial marker Mito Tracker® Green FM (100 nm) was added, and the cells were co-incubated for another 10 min, washed three times with a PBS buffer, and imaged under a laser confocal microscope. In the red channel, light of 561 nm was used for excitation, and a fluorescence signal in the range of 570-750 nm was collected. In the green channel, light of 488 nm was used for excitation, and a fluorescence signal in the range of 500-550 nm was collected.
The experiment method with dye 3b (2 μM), dye 3c (2 μM), dye 3d (2 μM), and dye 3e (2 μM) was the same with that with dye 3a, except that dye 3a was replaced.

[2] = Photo stability under iodine tungsten lamp irradiation (residual absorptivity); type: physicochemical; settings: 10 μM in acetonitrile; 6 hrs continuous irradiation, 500 W iodine tungsten lamp, 25 cm
Protocol: The photo stability of dyes 2a-2e, and 3a-e (with a concentration of 10 μM) prepared above was tested. Corresponding weights of dyes 2a-2e and 3a-e and their references coumarin and Nile red were weighed, and dissolved in acetonitrile (at a concentration of 10 μM) respectively. All the samples were irradiated with a Philips iodine tungsten lamp (500 W), and the distance between the lamp and the sample was set to 25 cm. An 8 cm-thick NaNO2 (60 g·L^−1) cold trap was positioned between the lamp and the sample, to eliminate heat and short-wavelength light. The irradiation was continued for 6 hrs, during which the ultraviolet fluorescence was tested every half an hour. After 6 hrs, the light stability was measured by residual absorptivity calculated based on the change in the absorption intensity at various times before and after the irradiation. […] The residual absorptivity of dyes 2a-e, and 3a-e is 2a: 93%, 2b: 92%, 2c: 95%, 2d: 91%, 2e: 97%, 3a: 93%, 3b: 92%, 3c: 94%, 3d: 93%, 3e: 92%. It can be seen that dyes 2a-2e and 3a-e have higher photo stability.

[3] = Ultraviolet-visible absorption and fluorescence emission in chloroform; type: physicochemical; settings: 10 μM in chloroform; for maximum emission wavelength (highest fluorescence intensity): excitation 380-385 nm, slit 3 nm/1.5 nm (2a-e), excitation 545-550 nm, slit 1.5 nm/3 nm (3a-e)
Protocol: The ultraviolet absorption and fluorescence emission of the dyes prepared above (at a concentration of 10 μM) in chloroform were tested. The horizontal ordinate is the wavelength, and the vertical ordinate is the absorbance and fluorescence intensity, respectively.
In the ultraviolet-visible absorption spectrum, dye 2a has the maximum absorption at 388 nm; and in the fluorescence spectrum, dye 2a has the highest fluorescence intensity at 457 nm, where the excitation wavelength is 380 nm, and the slit width is 3 nm/1.5 nm. In the ultraviolet-visible absorption spectrum, dye 2b has a maximum absorption wavelength of 386 nm; and in the fluorescence spectrum, dye 2b has a maximum emission wavelength of 459 nm, where the excitation wavelength is 385 nm, and the slit width is 3 nm/1.5 nm. In the ultraviolet-visible absorption spectrum, dye 2c has a maximum absorption wavelength of 385 nm; and in the fluorescence spectrum, dye 2c has a maximum emission wavelength of 455 nm, where the excitation wavelength is 380 nm, and the slit width is 3 nm/1.5 nm. In the ultraviolet-visible absorption spectrum, dye 2d has the maximum absorption at 380 nm; and in the fluorescence spectrum, dye 2d has the highest fluorescence intensity at 457 nm, where the excitation wavelength is 380 nm, and the slit width is 3 nm/1.5 nm. In the ultraviolet-visible absorption spectrum, dye 2e has a maximum absorption wavelength of 385 nm; and in the fluorescence spectrum, dye 2e has a maximum emission wavelength of 458 nm, where the excitation wavelength is 385 nm, and the slit width is 3 nm/1.5 nm. In the ultraviolet-visible absorption spectrum, dye 3a has the maximum absorption at 554 nm; and in the fluorescence spectrum, dye 3a has the highest fluorescence intensity at 604 nm, where the excitation wavelength is 550 nm, and the slit width is 1.5 nm/3 nm. In the ultraviolet-visible absorption spectrum, dye 3b has a maximum absorption wavelength of 552 nm; and in the fluorescence spectrum, dye 3b has a maximum emission wavelength of 597 nm, where the excitation wavelength is 550 nm, and the slit width is 1.5 nm/3 nm. In the ultraviolet-visible absorption spectrum, dye 3c has a maximum absorption wavelength of 552 nm; and in the fluorescence spectrum, dye 3c has a maximum emission wavelength of 621 nm, where the excitation wavelength is 550 nm, and the slit width is 1.5 nm/3 nm. In the ultraviolet-visible absorption spectrum, dye 3d has a maximum absorption wavelength of 551 nm; and in the fluorescence spectrum, dye 3d has a maximum emission wavelength of 607 nm, where the excitation wavelength is 545 nm, and the slit width is 1.5 nm/3 nm. In the ultraviolet-visible absorption spectrum, dye 3e has a maximum absorption wavelength of 553 nm; and in the fluorescence spectrum, dye 3e has a maximum emission wavelength of 585 nm, where the excitation wavelength is 550 nm, and the slit width is 1.5 nm/3 nm. The above UV absorption and fluorescence emission test methods are conventional methods.

[4] = tested on: mitochondria in HeLa cells; assay: Colocalization imaging with red mitochondrial marker Mito Tracker Red CMXRos, laser confocal microscope; type: cell-based; settings: 2 μM; for mitochondria labeling ability: blue channel; for colocalization coefficient: versus Mito Tracker Red CMXRos (100 nm)
Protocol: To test the fluorescent labeling ability of Compound 2a compared with commercial mitochondrial markers, dye 2a was formulated into a mother liquor in DMSO (dimethyl sulfoxide), and then added to a conventional cell culture medium to give a concentration of dye 2a in the cell culture medium of 2 μM. HeLa cells were co-cultured for 10 min in an incubator at saturated humidity, 37° C., and 5% CO2 (the experiment was same below). The red mitochondrial marker Mito Tracker© Red CMXRos (100 nm) was added, and the cells were co-incubated for another 10 min, washed three times with a PBS buffer, and imaged under a laser confocal microscope. In the blue channel, light of 405 nm was used for excitation, and a fluorescence signal in the range of 410-500 nm was collected; and in the red channel, light of 561 nm was used for excitation, and a fluorescence signal in the range of 570-750 nm was collected.
The experiment method with dye 2b (2 μM), dye 2c (2 μM), dye 2d (2 μM), and dye 2e (2 μM) was the same with that with dye 2a, except that dye 2a was replaced.

SMILES	mitochondria labeling ability [1]	colocalization coefficient [1]	residual absorptivity [2] [%]	maximum absorption wavelength [3] [nm]	maximum emission wavelength (highest fluorescence intensity) [3] [nm]	mitochondria labeling ability [4]	colocalization coefficient [4]
CCN(CC)c1ccc2nc3c4ccc(-c5ccc(C(N)=O)cc5)cc4c(=O)cc-3oc2c1 [dye 3a]	has mitochondria labeling ability	0.94	93	554	604	–	–
CCN(CC)c1ccc2nc3c4ccc(-c5ccc(C(=O)N(C)C)cc5)cc4c(=O)cc-3oc2c1 [dye 3c]	has mitochondria labeling ability	0.94	94	552	621	–	–
CCN(CC)c1ccc2nc3c4ccccc4c(=O)cc-3oc2c1 [Nile Red, Nile red, reference compound]	–	–	97	–	–	–	–
CCN(CC)c1ccc2c(C)c(-c3ccc(C(=O)NC)cc3)c(=O)oc2c1 [dye 2b]	–	–	92	386	459	have mitochondria labeling ability	0.94
CCN(CC)c1ccc2c(C)c(-c3ccc4c(c3)CC(=O)N4)c(=O)oc2c1 [dye 2d]	–	–	91	380	457	have mitochondria labeling ability	0.92
CCN(CC)c1ccc2nc3c4ccc(-c5ccc6c(c5)CC(=O)N6)cc4c(=O)cc-3oc2c1 [dye 3d]	has mitochondria labeling ability	0.96	93	551	607	–	–
CCN(CC)c1ccc2nc3c4ccc(-c5ccc(C(=O)NC)cc5)cc4c(=O)cc-3oc2c1 [dye 3b]	has mitochondria labeling ability	0.88	92	552	597	–	–
CCN(CC)c1ccc2c(C)c(-c3ccc(C(=O)N(C)C)cc3)c(=O)oc2c1 [dye 2c]	–	–	95	385	455	have mitochondria labeling ability	0.88
CCN(CC)c1ccc2c(C)c(-c3ccc(C(N)=O)cc3)c(=O)oc2c1 [dye 2a]	–	–	93	388	457	has mitochondria labeling ability	0.88
CCN(CC)c1ccc2nc3c4ccc(-c5ccc6c(c5)CCC(=O)N6)cc4c(=O)cc-3oc2c1 [dye 3e]	has mitochondria labeling ability	0.92	92	553	585	–	–
O=c1ccc2ccccc2o1 [coumarin, reference compound]	–	–	94	–	–	–	–
CCN(CC)c1ccc2c(C)c(-c3ccc4c(c3)CCC(=O)N4)c(=O)oc2c1 [dye 2e]	–	–	97	385	458	have mitochondria labeling ability	0.91
